This is an account of results in patent publication US20200010910A1, “Cytotoxic Chemotherapy-Based Predictive Assays for Acute Myeloid Leukemia” (The Regents of The University of California, priority 2017, published 2020).

For series [1], the system named is tumor biopsy sample from the bone marrow. As to the kind of experiment: microdose-induced oxaliplatin-DNA adducts in patient tumor biopsy. The series is classed as in vivo, human. Particulars: metastatic breast patient; 48 hours post microdose; n=2 repeats. As to the method:
Therefore, a tumor biopsy sample from the bone marrow of this same metastatic breast patient was collected 48 hours post microdose administration and analyzed by AMS for oxaliplatin-DNA adducts. […] Therefore, in one embodiment, a useful range of oxaliplatin-DNA adduct frequency after microdosing is 0.5-50 adducts per 10^8 nt.

Another series concerns PBMC. Description: microdose-induced oxaliplatin-DNA adducts in patients. The series is classed as in vivo, human. As to the method:
The plasma samples were additionally processed to isolate PBMC, and the DNA was extracted and analyzed using AMS to calculate the oxaliplatin-DNA adduct frequency (both monoadducts and diadducts combined) (FIG. 17B). […] These adduct levels then decrease substantially out to 48 hours post microdosing. […] Overall, the plasma PK and time course of oxaliplatin-DNA adduct formation and repair in PBMC allowed determination of the best time to dose patients prior to biopsy in order to maximize the oxaliplatin-DNA adduct formation, allow for repair in those patients with high repair capacity, minimize the risk of radioactive contamination of PBMC and tumor samples, and also minimize the risk of radioactive contamination of the operating room by blood-borne radiocarbon.
Plasma samples were collected, filtered, and counted by liquid scintillation counting to determine plasma oxaliplatin levels. […] The range of microdose-induced adduct levels (frequencies) for the three colorectal patients was 0.1-6 adducts per 10^8 nt.

For series [2] the following is noted: chemotherapy; cited from earlier work.
For series [3] the following is noted: sterile solution in water, storage at −20° C.
Description: Radiolabeled carboplatin containing C^14 carbon atoms in the cyclobutane dicarboxylic acid group was formulated for human use as a sterile, pyrogen free solution at 5 mg/mL in water.
Series [4] is described as follows: human plasma pharmacokinetics of [14C]oxaliplatin microdose. Type of series: in vivo. Particulars: metastatic breast cancer patient; IV microdose.
Description: Peripheral blood specimens were drawn into BD Vacutainer CPT™ tubes with sodium heparin from the other arm at specific time points before and after the administration of the microdose. Plasma samples collected at −5 min, 5 min, 15 min, 30 min, 2 h, 4 h, 8 h, 24 h, and 48 h post microdose injection were analyzed by liquid scintillation counting (FIG. 17A).
The nature of series [5]: safety of radiolabeled microdose in patients. Particulars: IV microdose, 1% of the therapeutic dose.
Description: Microdoses of the [^14C]Carboplatin were administered to human cancer patients as a diagnostic reagent, followed by full dose platinum-based chemotherapy and evaluation of response. Within four weeks of the [^14C]carboplatin microdose, these patients received standard of care chemotherapy for their disease, which included either carboplatin or cisplatin. The patient population consisted of non-small cell lung cancer patients (NSCLC), stage IV with measurable lesions, and bladder transitional cell carcinoma (TCC) patients, stage II disease and above for neoadjuvant treatment, or stage III and IV metastatic disease with measurable lesions for palliative chemotherapy. Patients were identified for this study as having measurable lesions using the Response Evaluation Criteria in Solid Tumor (RECIST), an Eastern Cooperative Oncology Group performance status of <2, and adequate bone marrow and vital organ function. PBMC and tumor tissue were collected from the patients for analysis of carboplatin-DNA monoadduct frequencies. Toxicity of the [^14C]carboplatin diagnostic reagent administered as a microdose was assessed using Common Terminology Criteria for Adverse Events (CTCAE). Toxicities of grade 3 and above were also collected for patient specific toxic response to full dose chemotherapy for correlation analysis to carboplatin-DNA monoadduct frequency. Patient response to chemotherapy was evaluated using the RECIST for correlation to carboplatin-DNA monoadduct frequency.
The dose of carboplatin in the diagnostic microdose was chosen to be sub-toxic and non-therapeutic, to minimize patient chemical and radiation exposure, and to result in AMS measurable carboplatin-DNA monoadducts. Nineteen patients have been administered at least one microdose of [^14C]carboplatin via IV infusion as a diagnostic reagent. Patient toxicity related to the microdose was monitored from the time of IV microdose until the patients received their first chemotherapy. […] The total radioactive dose given to a 75 kg patient after an IV microdose of [^14C]carboplatin is calculated to be 338 μCi. […]
The subject of series [6] is 5637. As to the kind of experiment: oxaliplatin-DNA adduct formation and repair by AMS. The series is classed as cell-based, human. As to the method: (§1) To characterize the oxaliplatin-DNA adduct frequency in these cell lines, cells from each cell line were seeded in 60-mm dishes at a density of 1×10^6 cells/dish and allowed to attach overnight in a 37° C. humidified atmosphere containing 5% CO2. […] The cells were then washed twice with phosphate-buffered solution (PBS) and maintained thereafter with oxaliplatin-free culture media. DNA was harvested at hours 0, 2, 4, 8, 24, 28 and 48 hours using a Promega Wizard DNA Purification Kit. Ten micrograms of DNA per sample was converted to graphite and measured by AMS for ^14C quantification. Triplicate sets of AMS experiments were performed and the data was plotted as time vs oxaliplatin-DNA adducts per 10^8 nt.

The test system of series [7] is 5637R. As to the kind of experiment: oxaliplatin-DNA adduct formation and repair by AMS. The series is classed as cell-based, human. The procedure: as §1
Series [8] deals with five bladder cancer cell lines (5637, T24, TCCSUP, HT1197, and J82). Description: oxaliplatin-DNA adducts by AMS in cell culture. Type of series: cell-based. The following applies: 4 hours. As to the method:
Cells were seeded in 60-mm dishes at a density of 1×10^6 cells/dish and allowed to attach overnight in a 37° C. humidified atmosphere containing 5% C02. […] The cells were then washed twice with phosphate-buffered solution (PBS) and maintained thereafter with oxaliplatin-free culture media. DNA was harvested at hours 0, 2, 4, 8, 24 hours using the modified Wizard procedure described previously. Ten micrograms of DNA per sample was converted to graphite and measured by AMS for ^14C quantification. Triplicate sets of AMS experiments were performed and the data was plotted as time vs oxaliplatin-DNA adducts per 10^8 nt. […] Oxaliplatin-DNA monoadducts could be detected in all cell lines at all time points. […] Therefore, drug-DNA damage from microdoses of oxaliplatin are predictive of the extent of DNA modification caused by the therapeutic dose in cell culture.

The subject of series [9] is 5637R. Description: MTT assay IC50, oxaliplatin-resistant bladder cancer sub-line. Type of series: cell-based, human. As to the method:
(§2) Drug-DNA adduct formation and repair was measured by accelerator mass spectrometry.
To confirm that 5637 was the original ATCC cell line, and that 5637R originated from the parental 5637 cell line, both cultures were sent to the ATCC Cell Line Authentication Service for cell verification per the ATCC protocol. More specifically, fifteen short tandem repeat (STR) loci plus the gender determining locus, amelogenin, were amplified using the commercially available PowerPlex® 16HS Kit from Promega.
(§3) These two cell lines were also cultured with a range of concentrations of cisplatin, carboplatin, gemcitabine, doxorubicin, methotrexate and vinblastine for 72 hours to determine IC50 for these other drugs (FIG. 16C). These drugs were chosen because of their frequent use in the treatment of bladder cancer.

The test system of series [10] is 5637. As to the kind of experiment: MTT assay IC50, bladder cancer cell line. Particulars: 72 hours. The series is classed as cell-based, human. As to the method:
Thus, we measured the IC50 of the six NSCLC cell lines from Example 2 to both cisplatin and carboplatin to determine if the sensitivity of these six NSCLC cell lines to the two drugs are correlated.
as §2, §3

For series [11], the system named is 5637 and 5637R bladder cancer cell lines. Description: cytarabine-DNA adducts by AMS, CIV and bolus type treatment. The series is classed as cell-based, human. The following applies: low dose or high dose; CIV and bolus treatment regimens. As to the method:
Sensitive and resistant bladder cancer cells were treated with Ara-C in culture. Two treatment conditions were used, one to mimic clinically continuous infusion (CIV) and one to mimic clinically bolus infusion (bolus infusions use a much higher Ara-c dose). The day before treatment, one million bladder cancer cells were seeded in 60-mm dishes and allowed to attach overnight. To simulate CIV treatment, the bladder cancer cell lines were exposed in growth medium with a low (10 nM) or a high (1 μM) dose of ARA-C supplemented with 8 nM ^14C-labeled ARA-C(1000 dpm/mL-20-0.4 mCi/mmol specific activity (Moravek Biochemicals, Inc.) over 24 h (FIG. 25A). At 24 hrs, the cells were harvested and washed for subsequent DNA isolation using the Wizard Genomic DNA Purification Kit. To simulate bolus treatment, the bladder cancer cell lines were exposed in growth medium with a low dose (3 μM) or a high dose ([…]; a highly toxic concentration for these cell lines) supplemented with 0.8 nM ^14C-labeled ARA-C (0.0001 mCi/mmol specific activity) for 4 h, followed by 20 h in drug-free media (FIG. 25B). After a 4-hour incubation, the cells were washed three times with PBS and cultured in drug-free media for an additional 20 hours. DNA from cells isolated at 24 hours was then purified. […] The ratios of ^14C to total C were measured by AMS, and drug-DNA adducts per ten million nucleotides were calculated.

Series [12] has as its system MOLM-13. As to the kind of experiment: ARA-C incorporation into DNA by AMS. The following applies: MOLM-13 (most sensitive); 1.6 nM or 16 nM ARA-C 24 hrs. The series is classed as cell-based, human. The procedure:
(§4) MV-4-11, THP-1, and MOLM-13 cells are human, immortalized, myelogenous leukemia cell lines that proliferate continuously in suspension. These cell lines serve as a cell culture model for AML. Suspension cultures consisting of two million cells in […] culture dishes were treated with ARA-C for 24 hrs (to simulate CIV) prior to DNA isolation. The cultures were dosed with a low (1.6 nM) or a high (16 nM) dose of ARA-C supplemented with 0.8 nM ^14C-labeled ARA-C (100 dpm/mL, 2.4-16.7 mCi/mmol specific activity), and isolated DNA was analyzed by AMS to determine drug-DNA adduct levels. The suspension cell lines were dosed in primary cell media (IMDM+20% BIT9500 serum substitute, 20 ng/mL IL-3, 10 ng/mL IL-6, 20 ng/mL G-CSF, 20 ng/mL GM-CSF, 50 ng/mL SCF) to mimic the dosing conditions that will be used for patient-derived AML samples. This media is used for short term culturing of primary AML cells that are previously collected from patients, frozen and stored in a biobank.

Series [13] deals with THP-1. As to the kind of experiment: ARA-C incorporation into DNA by AMS. Particulars: THP-1 (least sensitive); 1.6 nM or 16 nM ARA-C 24 hrs. The series is classed as cell-based, human. As to the method: as §4
Series [14] has as its system MOLM-13. Description: CellTiter 96 Aqueous cell proliferation assay. The series is classed as cell-based. The following applies: Homo sapiens, 72 hr continuous treatment. The source says: (§5) Correlation of IC50 to the AML induction drugs Dox and Ara-C were first performed with the adherent bladder cancer cell lines 5637 and 5637R for cytarabine and with the adherent ovarian cancer cell lines A2780 and A2780ADR for doxorubicin. Cell lines 5637 and 5637R (Ara-C resistant) have been described previously (20). A2780 and A2780ADR (doxorubicin resistant) were purchased from Sigma-Aldrich and grown as recommended. IC50 values were obtained by plating 4000 cells per well in 96-well plates the night before treatment, and then allowing the cells to adhere over night. Leukemia cell lines capable of continuous proliferation in suspension and having differential sensitivities to Dox and Ara-C were also obtained for correlation analysis. MV-4-11 (acute monocytic leukemia) and THP-1 (acute monocytic leukemia) human cell lines were purchased from American Type Culture Collection (ATCC, Manassas, Va.). MOLM-13 (acute myeloid leukemia) human cells were purchased from AddexBio (San Diego, Calif.). For leukemia cell lines (suspension cultures), approximately 8,000-11,000 cells were seeded per well in 96-well plates the day of treatment. MV-4-11 cells were grown in IMDM (Iscove's Modified Dulbecco's Media) with 10% FBS, 100 U/ml penicillin, and 100 μg/ml streptomycin. THP-1, A2780, and A2780ADR cells were grown in RPMI-1640 media with 10% FBS, 100 U/ml penicillin, and 100 μg/ml streptomycin. 5637, 5637R, and MOLM-13 cells were grown in RPMI-1640 media with 20% FBS, 100 U/ml penicillin, and 100 μg/ml streptomycin. All cells were cultured at 37° C. in a humidified incubator. The cells were then incubated with increasing doses of cytarabine or doxorubicin continuously for 72 hours. IC50 values were determined using the CellTiter 96 Aqueous Non-Radioactive Cell Proliferation Assay (Promega). […] As shown, 5637 and 5673R have differential sensitivity to cytarabine, while A2780 and A2780ADR have differential sensitivity to doxorubicin. The leukemic suspension cell lines also have differential sensitivity to these two drugs.

Series [15] concerns THP-1. As to the kind of experiment: CellTiter 96 Aqueous cell proliferation assay. Type of series: cell-based. Particulars: Homo sapiens, 72 hr continuous treatment.
Description: as §5

A further series concerns MV-4-11. Description: CellTiter 96 Aqueous cell proliferation assay. The following applies: Homo sapiens, MV4-11, 72 hr continuous treatment. The series is classed as cell-based.
Description: as §5

The subject of series [16] is 5637. Description: CellTiter 96 Aqueous cell proliferation assay. The following applies: Homo sapiens, 72 hr continuous treatment. Type of series: cell-based.
Description: as §5

In series [17] the test system is 5637R. As to the kind of experiment: CellTiter 96 Aqueous cell proliferation assay. The series is classed as cell-based. The following applies: Homo sapiens, 72 hr continuous treatment.
Description: as §5

The mark [18] stands for this setting: 24 hour culture without oxaliplatin.

The compound `O=C1[O][Pt]2([NH][C@@H]3CCCC[C@H]3[NH]2)[O]C1=O` [oxaliplatin] showed an oxaliplatin-DNA adduct frequency in [1] of 14.6±4.9 per 10^8 nt. In addition, in the series with PBMC (metastatic breast cancer patient, first 4 hours after microdose), the “maximum oxaliplatin-DNA adducts in PBMC” value was 8 adducts per 10^8 nt. Further, in the series on PBMC (three colorectal patients, PBMC), the “range of microdose-induced adduct levels (frequencies)” value is 0.1-6 adducts per 10^8 nt. Further, the “peak human oxaliplatin plasma concentration during chemotherapy” value in series [2] was 10 µM. Further, the “loss of radiopurity per year” value in [3] is under 2%. Also, in series [4], the “T1/2 (α), first (fast) phase” value was determined as 13.3 min. In addition, the clinical side effects entry in series [5] was “None of the clinical side effects associated with standard therapeutic doses of oxaliplatin were observed”. For the same compound, the entries for the “oxaliplatin-DNA adducts at 24 hours” value with 5637 [6] (10 μM for 24 hours) and with 5637R [7] (10 μM for 24 hours) were 710.0±32.2 adducts per 10^8 nucleotide and 259.2±37.3 adducts per 10^8 nucleotide, respectively. The repair rate with 5637 [6] (setting [18]) was 1.34±0.30 adducts per 10^8 nucleotides-hour; in the series with 5637R [7] (setting [18]), 3.48±0.15 adducts per 10^8 nucleotide-hour. Further, the entries for the “area under curve (AUC) of oxaliplatin-DNA adducts” value in the series with 5637 [6] (48 hour study period) and in the series on 5637R [7] (48 hour study period) were 27,720±2,985 adducts per 10^8 nucleotide-hour and 9,426±2457 adducts per 10^8 nucleotide-hour, respectively. In addition, the entries for the “DNA damage concentrations (oxaliplatin-DNA adducts)” value in [8] (microdose 0.1 μM oxaliplatin) and in [8] (therapeutic dose 10 μM oxaliplatin) were 50-100 adducts per 10^8 nt and 5,000-10,000 adducts per 10^8 nt, respectively. Besides, in the series on 5637R [9], the “increase of IC50 of 5637R compared to parental 5637” value is given as “approximately 10 fold”. Also, the half-maximal inhibitory concentration (IC50) came out at 27.3 µM with 5637R [9] (5637R, 72 hours) and 2.45 µM in the series on 5637 [10].

Take `Nc1ccn([C@@H]2O[C@H](CO)[C@@H](O)[C@@H]2O)c(=O)n1` [cytarabine]: the “cytarabine-DNA adducts in resistant 5637R compared to parent 5637” value in [11] is given as “fewer cytarabine-DNA adducts”. For the same compound, the results for the “levels of ARA-C incorporation among three AML cell lines” value with MOLM-13 [12] and in the series on THP-1 [13] were “highest levels of ARA-C incorporation” and “lowest levels of ARA-C incorporation”, respectively. Besides, the IC50 in the series on MOLM-13 [14] amounted to 0.018 µM; in the series on THP-1 [15], 4.4 µM; in the series on MV-4-11 it was 0.353 µM; in the series with 5637 [16] it was 5.69 µM; with 5637R [17] it was 60.1 µM.
